In one assay the target is FGFR3 kinase (Homo sapiens, UniProt P22607). The experiment in a line: FGFR3 kinase inhibition assay (LanthaScreen TR-FRET). In kind it is biochemical. Here is the method: FGFR3 Kinase Inhibition Assay
(§1) LanthaScreen™ is the detection of Time-Resolved Fluorescence Resonance Energy Transfer (TR-FRET) using lanthanide chelates to measure interactions between various binding partners. The application of TR-FRET to assay kinase activity was first described by Mathis (1995). A TR-FRET assay was used to measure FGFR3 kinase inhibitory activity. The assay panel was run on a Biomek FX liquid handling workstations. To the assay plates containing 50 mL compound or control solutions, 4.5 μL of buffer A (50 mM TRIS-HCl pH 7.4, 2 mM DTT, 0.02% Tween 20, 0.02 mM Na3VO4, H2O nanpure) including a generic concentration of ATP (2 μM f.c.) was added per well, followed by 4.5 μL of buffer B (4 uM ATP in Buffer A) including a generic concentration of polyEAY (50 nM f.c.), FGFR3 kinase, and divalent cations. Final concentration of kinase and cations were: [FGFR3 kinase]=0.20 nM, [Mg]=3 mM, [Mn]=3 mM. After 1 hour of incubation the kinase reactions were stopped by the addition of 4.5 μL of stop solution D (50 mM EDTA, 20 mM TRIS-HCl pH 7.4, 0.04% NP-40) immediately followed by 4.5 μL of buffer A (50 mM TRIS-HCl pH 7.4, 2 mM DTT, 0.02% Tween 20, 0.02 mM Na3VO4, H2O nanpure) including the Tb-labeled P-20 antibody to give a total detection volume of 18 μL. After an incubation time of 45 min in the dark, the plates were transferred into the Pherastar fluorescence reader for counting. The effect of compound on the enzymatic activity was obtained from the linear progress curves and determined from one reading (end point measurement).
(In general: TR-FRET usually uses a lanthanide donor and a delayed reading to cut background.)

The next assay deals with KDR kinase (Homo sapiens, UniProt P35968). The assay can be described thus: KDR kinase inhibition assay (LanthaScreen TR-FRET). In kind it is biochemical. The note with it: TR-FRET assay. Here is the method:
KDR Kinase Inhibition Assay
as §1, with “KDR” for “FGFR3”, “nL” for “mL”, “[KDR kinase]=0.38” for “[FGFR3 kinase]=0.20”, “[Mg]=10” for “[Mg]=3”, “[Ca]=1” for “[Mn]=3”

Chain of KDR kinase (P35968 20-1356): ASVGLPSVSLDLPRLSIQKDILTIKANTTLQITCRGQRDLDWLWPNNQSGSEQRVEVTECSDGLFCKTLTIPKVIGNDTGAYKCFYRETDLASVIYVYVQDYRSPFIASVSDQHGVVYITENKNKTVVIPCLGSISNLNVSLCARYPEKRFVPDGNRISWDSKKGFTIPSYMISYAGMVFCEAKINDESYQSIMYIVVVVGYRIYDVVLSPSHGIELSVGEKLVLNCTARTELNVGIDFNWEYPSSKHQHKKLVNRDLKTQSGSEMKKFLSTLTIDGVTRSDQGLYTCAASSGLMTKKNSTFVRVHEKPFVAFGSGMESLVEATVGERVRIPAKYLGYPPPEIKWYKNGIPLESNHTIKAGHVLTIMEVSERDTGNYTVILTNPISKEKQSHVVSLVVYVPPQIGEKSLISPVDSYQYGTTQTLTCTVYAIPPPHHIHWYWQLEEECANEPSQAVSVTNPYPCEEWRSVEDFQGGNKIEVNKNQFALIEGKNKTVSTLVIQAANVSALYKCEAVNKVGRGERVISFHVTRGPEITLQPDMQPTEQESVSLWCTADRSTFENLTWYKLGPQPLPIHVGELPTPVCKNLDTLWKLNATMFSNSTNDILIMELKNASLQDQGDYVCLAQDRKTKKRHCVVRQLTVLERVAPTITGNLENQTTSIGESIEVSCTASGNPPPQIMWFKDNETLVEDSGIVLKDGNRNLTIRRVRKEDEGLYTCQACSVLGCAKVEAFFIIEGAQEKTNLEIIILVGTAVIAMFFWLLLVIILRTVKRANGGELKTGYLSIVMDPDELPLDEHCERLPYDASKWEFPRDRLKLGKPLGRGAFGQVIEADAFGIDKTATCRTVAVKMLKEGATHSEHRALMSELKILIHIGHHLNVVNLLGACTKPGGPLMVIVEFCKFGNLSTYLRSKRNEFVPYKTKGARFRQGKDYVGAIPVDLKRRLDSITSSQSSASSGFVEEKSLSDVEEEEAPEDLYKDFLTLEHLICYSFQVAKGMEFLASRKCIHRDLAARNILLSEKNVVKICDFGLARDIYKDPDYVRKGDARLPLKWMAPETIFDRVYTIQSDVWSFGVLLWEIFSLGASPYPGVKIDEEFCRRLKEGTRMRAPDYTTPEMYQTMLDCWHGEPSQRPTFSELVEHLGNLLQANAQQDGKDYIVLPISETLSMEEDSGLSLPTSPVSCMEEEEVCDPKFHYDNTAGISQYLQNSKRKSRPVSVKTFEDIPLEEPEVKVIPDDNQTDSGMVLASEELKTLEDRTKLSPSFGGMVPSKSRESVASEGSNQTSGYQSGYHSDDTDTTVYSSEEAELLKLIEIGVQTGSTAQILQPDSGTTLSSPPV
Chain of FGFR3 kinase (P22607 23-806): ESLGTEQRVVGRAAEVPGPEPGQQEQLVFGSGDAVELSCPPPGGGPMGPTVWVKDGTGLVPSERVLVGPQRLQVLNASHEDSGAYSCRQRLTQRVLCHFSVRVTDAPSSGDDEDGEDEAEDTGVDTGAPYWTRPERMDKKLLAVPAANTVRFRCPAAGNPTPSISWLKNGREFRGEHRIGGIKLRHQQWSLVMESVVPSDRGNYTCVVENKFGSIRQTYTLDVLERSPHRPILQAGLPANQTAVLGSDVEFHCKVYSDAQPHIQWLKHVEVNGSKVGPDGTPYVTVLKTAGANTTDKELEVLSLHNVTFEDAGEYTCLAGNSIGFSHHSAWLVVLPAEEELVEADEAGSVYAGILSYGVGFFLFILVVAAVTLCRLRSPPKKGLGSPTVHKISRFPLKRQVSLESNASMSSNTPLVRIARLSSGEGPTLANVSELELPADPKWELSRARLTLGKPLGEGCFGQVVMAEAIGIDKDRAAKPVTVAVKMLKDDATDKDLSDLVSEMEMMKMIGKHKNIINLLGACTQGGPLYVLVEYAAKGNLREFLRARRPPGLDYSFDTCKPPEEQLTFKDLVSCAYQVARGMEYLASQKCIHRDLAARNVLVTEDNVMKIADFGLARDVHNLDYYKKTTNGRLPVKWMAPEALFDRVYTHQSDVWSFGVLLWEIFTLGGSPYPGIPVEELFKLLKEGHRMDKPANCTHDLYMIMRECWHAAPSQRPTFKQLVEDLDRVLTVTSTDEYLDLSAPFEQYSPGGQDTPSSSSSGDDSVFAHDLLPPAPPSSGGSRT

For `Nc1ncc(-c2ccccc2)nc1C(=O)Nc1cnccc1[C@H]1C[C@@H](N)[C@@]2(O)CCC[C@H]2O1` [Example 183, 3-amino-N-(4-((2R,4R,4aS,7aR)-4-amino-4a-hydroxyoctahydrocyclopenta[b]pyran-2-yl)pyridin-3-yl)-6-phenylpyrazine-2-carboxamide], the IC50 is 44 nM against FGFR3 kinase and 6.8 nM on KDR kinase.

In the case of `Nc1ncc(-c2ccccc2)nc1C(=O)Nc1cnccc1[C@@H]1C[C@H](N)[C@]2(O)CCC[C@@H]2O1` [Example 185, 3-amino-N-(4-((2S,4S,4aR,7aS)-4-amino-4a-hydroxyoctahydrocyclopenta[b]pyran-2-yl)pyridin-3-yl)-6-phenylpyrazine-2-carboxamide], the figures for the half-maximal inhibitory concentration (IC50) at FGFR3 kinase and against KDR kinase were greater than 10000 nM and 2000 nM, respectively.

Consider `CC[C@]1(O)[C@H](N)C[C@H](c2ccncc2NC(=O)c2nc(-c3ccccc3)cnc2N)O[C@@H]1C` [Example 187, 3-amino-N-(4-((2R,4R,5S,6R)-4-amino-5-ethyl-5-hydroxy-6-methyltetrahydro-2H-pyran-2-yl)pyridin-3-yl)-6-phenylpyrazine-2-carboxamide], for which the IC50 at FGFR3 kinase was found to be 830 nM; against KDR kinase, 42 nM.

As for `CC[C@]1(O)[C@H](C)O[C@H](c2ccncc2NC(=O)c2nc(-c3ccccc3)cnc2N)C[C@@H]1N` [Example 189, 3-amino-N-(4-((2S,4S,5R,6S)-4-amino-5-ethyl-5-hydroxy-6-methyltetrahydro-2H-pyran-2-yl)pyridin-3-yl)-6-phenylpyrazine-2-carboxamide], the values for the IC50 on FGFR3 kinase and on KDR kinase were 7400 nM and 1400 nM, respectively.

For `Nc1ncc(-c2ccccc2)nc1C(=O)Nc1cnccc1[C@H]1C[C@@H](N)[C@@]2(O)CCCC[C@H]2O1` [Example 197, 3-amino-N-(4-((2R,4R,4aS,8aR)-4-amino-4a-hydroxyoctahydro-2H-chromen-2-yl)pyridin-3-yl)-6-phenylpyrazine-2-carboxamide], on KDR kinase, the IC50 amounted to 40 nM.

In the case of `Nc1ncc(-c2ccccc2)nc1C(=O)Nc1cnccc1[C@H]1C[C@@H](N)[C@H]2CCC[C@H]2O1` [Example 199, 3-amino-N-(4-((2R,4R,4aR,7aR)-4-aminooctahydrocyclopenta[b]pyran-2-yl)pyridin-3-yl)-6-phenylpyrazine-2-carboxamide], it took 62 nM to reach half-maximal inhibition against KDR kinase (IC50).

Consider `CC(C)(C)[C@@H]1O[C@H](c2ccncc2NC(=O)c2nc(-c3ccccc3)cnc2N)C[C@@H](N)[C@H]1O` [Example 227, 3-amino-N-(4-((2S,4R,5R,6S)-4-amino-6-tert-butyl-5-hydroxytetrahydro-2H-pyran-2-yl)pyridin-3-yl)-6-phenylpyrazine-2-carboxamide], for which the IC50 was determined as 2400 nM against FGFR3 kinase and 1700 nM on KDR kinase.

With `C[C@H]1O[C@@H](c2ccncc2NC(=O)c2nc(-c3ccccc3)cnc2N)C[C@@H](N)[C@]1(C)O` [Example 228, 3-amino-N-(4-((2R,4R,5S,6R)-4-amino-5-hydroxy-5,6-dimethyltetrahydro-2H-pyran-2-yl)pyridin-3-yl)-6-phenylpyrazine-2-carboxamide], the values for the IC50 against FGFR3 kinase and on KDR kinase were 320 nM and 38 nM, respectively.

In the case of `C[C@@H]1O[C@H](c2ccncc2NC(=O)c2nc(-c3ccccc3)cnc2N)C[C@H](N)[C@@]1(C)O` [Example 229, 3-amino-N-(4-((2S,4S,5R,6S)-4-amino-5-hydroxy-5,6-dimethyltetrahydro-2H-pyran-2-yl)pyridin-3-yl)-6-phenylpyrazine-2-carboxamide], the IC50 against FGFR3 kinase worked out at 3400 nM; against KDR kinase, 790 nM.

Turning to `Nc1ncc(-c2ccccc2)nc1C(=O)Nc1cnccc1[C@@H]1C[C@H](N)[C@@H]2CCC[C@@H]2O1` [Example 233, 3-amino-N-(4-((2S,4S,4aS,7aS)-4-aminooctahydrocyclopenta[b]pyran-2-yl)pyridin-3-yl)-6-phenylpyrazine-2-carboxamide], the IC50 against KDR kinase worked out at 3000 nM. This lies in the single-digit micromolar range.

Consider `CC(C)[C@@H]1O[C@H](c2ccncc2NC(=O)c2nc(-c3ccccc3)cnc2N)C[C@H](N)[C@H]1O` [Example 240, 3-amino-N-(4-((2S,4S,5R,6S)-4-amino-5-hydroxy-6-isopropyltetrahydro-2H-pyran-2-yl)pyridin-3-yl)-6-phenylpyrazine-2-carboxamide], for which the IC50 on FGFR3 kinase is greater than 10000 nM; on KDR kinase it was 5100 nM.

For `Nc1ncc(-c2ccccc2)nc1C(=O)Nc1cnccc1[C@@H]1C[C@H](N)[C@]2(O)CCCC[C@@H]2O1` [Example 243, 3-amino-N-(4-((2S,4S,4aR,8aS)-4-amino-4a-hydroxyoctahydro-2H-chromen-2-yl)pyridin-3-yl)-6-phenylpyrazine-2-carboxamide], it took 8400 nM to reach half-maximal inhibition against KDR kinase (IC50). This lies in the single-digit micromolar range.

`CC(C)(C)[C@H]1O[C@@H](c2ccncc2NC(=O)c2nc(-c3ccccc3)cnc2N)C[C@H](N)[C@@H]1O` [Example 286, 3-amino-N-(4-((2R,4S,5S,6R)-4-amino-6-tert-butyl-5-hydroxytetrahydro-2H-pyran-2-yl)pyridin-3-yl)-6-phenylpyrazine-2-carboxamide]: the IC50 is 710 nM at FGFR3 kinase and 180 nM against KDR kinase.

For the compound `CC(C)[C@@H]1C[C@H](N)C[C@H](c2ccncc2NC(=O)c2nc(-c3ccccc3)cnc2N)O1` [Example 291, 3-amino-N-(4-((2R,4S,6S)-4-amino-6-isopropyltetrahydro-2H-pyran-2-yl)pyridin-3-yl)-6-phenylpyrazine-2-carboxamide], the IC50 at FGFR3 kinase came to 1600 nM; at KDR kinase it was 340 nM.

For `CC(C)[C@H]1C[C@@H](N)C[C@@H](c2ccncc2NC(=O)c2nc(-c3ccccc3)cnc2N)O1` [Example 292, 3-amino-N-(4-((2S,4R,6R)-4-amino-6-isopropyltetrahydro-2H-pyran-2-yl)pyridin-3-yl)-6-phenylpyrazine-2-carboxamide], the IC50 was greater than 10000 nM against FGFR3 kinase and 4300 nM on KDR kinase.

As to `CCC[C@H]1O[C@@H](c2ccncc2NC(=O)c2nc(-c3ccccc3)cnc2N)C[C@@H](O)[C@@H]1O` [Example 340, 3-amino-N-(4-((2R,4R,5S,6R)-4,5-dihydroxy-6-propyltetrahydro-2H-pyran-2-yl)pyridin-3-yl)-6-phenylpyrazine-2-carboxamide], the IC50 turned out to be 210 nM against FGFR3 kinase and 130 nM at KDR kinase.

With `Nc1ncc(-c2ccccc2)nc1C(=O)Nc1cnccc1[C@H]1C[C@@H](O)[C@H](O)[C@@H](CO)O1` [Example 341, 3-amino-N-(4-((2R,4R,5S,6R)-4,5-dihydroxy-6-(hydroxymethyl)tetrahydro-2H-pyran-2-yl)pyridin-3-yl)-6-phenylpyrazine-2-carboxamide], the IC50 at FGFR3 kinase was 480 nM; on KDR kinase, 60 nM.

At KDR kinase, `C[C@@]1(O)[C@@H](N)C[C@@H](c2ccncc2NC(=O)c2nc(-c3ccccc3)cnc2N)OC12CC2` [Example 350, 3-amino-N-(4-((5S,7S,8R)-7-amino-8-hydroxy-8-methyl-4-oxaspiro[2.5]octan-5-yl)pyridin-3-yl)-6-phenylpyrazine-2-carboxamide] registered an IC50 of 220 nM.

For `C[C@]1(O)[C@@H](N)C[C@H](c2ccncc2NC(=O)c2nc(-c3ccccc3)cnc2N)OC12CC2` [Example 351, 3-amino-N-(4-((5R,7S,8S)-7-amino-8-hydroxy-8-methyl-4-oxaspiro[2.5]octan-5-yl)pyridin-3-yl)-6-phenylpyrazine-2-carboxamide], the IC50 against KDR kinase is 7 nM.

Consider `C[C@@]1(O)[C@H](N)C[C@@H](c2ccncc2NC(=O)c2nc(-c3ccccc3)cnc2N)OC12CC2` [Example 352, 3-amino-N-(4-((5S,7R,8R)-7-amino-8-hydroxy-8-methyl-4-oxaspiro[2.5]octan-5-yl)pyridin-3-yl)-6-phenylpyrazine-2-carboxamide], for which, at KDR kinase, the IC50 was 28 nM.

On KDR kinase, `C[C@]1(O)[C@H](N)C[C@H](c2ccncc2NC(=O)c2nc(-c3ccccc3)cnc2N)OC12CC2` [Example 353, 3-amino-N-(4-((5R,7R,8S)-7-amino-8-hydroxy-8-methyl-4-oxaspiro[2.5]octan-5-yl)pyridin-3-yl)-6-phenylpyrazine-2-carboxamide] displayed an IC50 of 250 nM.

As usually defined, the IC50 is the concentration at which inhibition is half-maximal. Higher therefore signals a need for much substance.

Values taken from patent US20130109682A1, “CYCLIC ETHER COMPOUNDS USEFUL AS KINASE INHIBITORS” (NOVARTIS AG, priority 2010, published 2013).
